According to US20040266886A1, “Cosmetic and/or pharmaceutical superfatting preparations” (priority 2001, published 2004):
Like-named read-outs stand apart in the source and are kept apart here.

Tests used:
pig's epidermis [1] = assay: Dermatological compatibility: transepidermal water loss (TEWL), gravimetric; settings: for TEWL [%-rel] = [treated/untreated * 100] − 100%: […] by weight fatty acid partial glyceride in 17% by weight Plantapon PS 10, pH 5.5, skin treated 30 minutes at 40° C., lower value = better compatibility
Procedure: (§1) Dermatological compatibility was evaluated by determining the transepidermal water loss (TEWL) in a pig's epidermis. To this end, defined pieces of skin were treated with the various test solutions for 30 minutes at 40° C. and the TEWL value was gravimetrically determined. The test solutions were mixtures of 17% by weight Plantapon® PS 10 (sodium lauryl ether sulfate and Lauryl Glycoside, Cognis Düsseldorf) with 1.5% by weight fatty acid partial glycerides (see Table 1) in preservative-containing water (WAS 10% by weight). The pH was adjusted to 5.5 with citric acid.

pig's epidermis [2] = settings: pH 5.5
Procedure: as §1

Row | Compound | TEWL [%-rel] = [treated/untreated * 100] − 100% (pig's epidermis [1]) [%-rel] | TEWL [%-rel] = [treated/untreated * 100] − 100% (pig's epidermis [2]) [%-rel] | also measured
1 | CCCCCCCCCCCC(=O)OCC(O)CO (centres unmarked) [Example 4, Lauric acid monoglyceride (>90)] | 10.5 | – | –
2 | Glycerol monocaprylate (>90) [Example 2] | – | – | Transepidermal water loss / dermatological compatibility (in words) (pig's epidermis [1]; compared with mixtures of 65% by weight monoglyceride and 35% by weight diglyceride): very good compatibility
3 | Isostearic acid mono/diglyceride (65:35) [Example 7] | – | 22.0 | –
4 | Isostearic acid monoglyceride (>90) [Example 8] | 18.5 | – | –
5 | Lauric acid mono/diglyceride (65:35) [Example 3] | – | 20.5 | –
